According to ChEMBL document CHEMBL4819133, “Exploiting the HSP60/10 chaperonin system as a chemotherapeutic target for colorectal cancer” (Bioorg Med Chem, 2021):

Legend:
HCT-116 = test: Cytotoxicity against human HCT-116 cells assessed as reduction in cell viability measured after 48 hrs by AlamarBlue assay; assay type: functional, cell-based; settings: HCT-116, 48 h
DLD-1 = test: Cytotoxicity against human DLD-1 cells assessed as reduction in cell viability measured after 48 hrs by AlamarBlue assay; assay type: functional, cell-based; settings: DLD-1, 48 h
HT-29 = test: Cytotoxicity against human HT-29 cells assessed as reduction in cell viability measured after 48 hrs by AlamarBlue assay; assay type: functional, cell-based; settings: HT-29, 48 h
FHC = test: Cytotoxicity against human FHC cells assessed as reduction in cell viability measured after 48 hrs by AlamarBlue assay; assay type: cell-based
[1] = Cytotoxicity against human FHs74Int cells assessed as reduction in cell viability measured after 48 hrs by AlamarBlue assay; assay type: cell-based
[2] = Cytotoxicity against human THLE-3 cells assessed as reduction in cell viability measured after 48 hrs by AlamarBlue assay; assay type: cell-based; settings: for CC50 at 48 h: THLE-3 cells; for CC50: thle-3, 48 h
[3] = (§1) Cytotoxicity against human HEK293 cells assessed as reduction in cell viability measured after 48 hrs by AlamarBlue assay; assay type: cell-based; settings: HEK293 cells
E. coli GroEL/ES [4] = molecular target: T1, E. coli GroEL/ES (Escherichia coli, UniProt P0A6F5); test: Inhibition of Escherichia coli GroEL/ES-mediated refolding of the denatured rhodanese; assay type: protein-complex assay
HSP60/HSP10 = HSP60/HSP10 (Homo sapiens, UniProt P10809); test: Inhibition of human mitochondrial HSP60/10-mediated refolding of the denatured malate dehydrogenase; assay type: mitochondria, Mitochondria
[5] = Inhibition of refolded MDH (unknown origin)-mediated oxidation of NADPH in presence of mesoxalic acid treated with compound after refolding of the denatured enzyme; set-up: species or system Homo sapiens
[6] = molecular target: T2, Thiosulfate sulfurtransferase (Homo sapiens, UniProt Q16762); test: Inhibition of refolded Rhodanese (unknown origin)-mediated conversion of cyanide to thiocyanate treated with compound after refolding of the denatured enzyme
T2 sequence (Q16762 whole entry): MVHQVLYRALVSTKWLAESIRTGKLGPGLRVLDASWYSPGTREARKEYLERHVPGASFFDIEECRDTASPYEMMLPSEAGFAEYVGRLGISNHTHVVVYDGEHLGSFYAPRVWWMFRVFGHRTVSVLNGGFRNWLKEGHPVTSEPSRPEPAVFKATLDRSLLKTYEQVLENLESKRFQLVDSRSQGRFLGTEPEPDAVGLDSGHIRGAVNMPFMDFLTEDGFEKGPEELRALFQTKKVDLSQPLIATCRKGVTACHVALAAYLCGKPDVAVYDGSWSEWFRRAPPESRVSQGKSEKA

E. coli GroEL/ES [7] = molecular target: T1, E. coli GroEL/ES; test: Inhibition of Escherichia coli GroEL/ES-mediated refolding of the denatured malate dehydrogenase; assay type: protein-complex assay
HEK293 = test: as §1; assay type: cell-based; settings: hek293, 48 h

T1 sequence (P0A6F5 whole entry, looked up): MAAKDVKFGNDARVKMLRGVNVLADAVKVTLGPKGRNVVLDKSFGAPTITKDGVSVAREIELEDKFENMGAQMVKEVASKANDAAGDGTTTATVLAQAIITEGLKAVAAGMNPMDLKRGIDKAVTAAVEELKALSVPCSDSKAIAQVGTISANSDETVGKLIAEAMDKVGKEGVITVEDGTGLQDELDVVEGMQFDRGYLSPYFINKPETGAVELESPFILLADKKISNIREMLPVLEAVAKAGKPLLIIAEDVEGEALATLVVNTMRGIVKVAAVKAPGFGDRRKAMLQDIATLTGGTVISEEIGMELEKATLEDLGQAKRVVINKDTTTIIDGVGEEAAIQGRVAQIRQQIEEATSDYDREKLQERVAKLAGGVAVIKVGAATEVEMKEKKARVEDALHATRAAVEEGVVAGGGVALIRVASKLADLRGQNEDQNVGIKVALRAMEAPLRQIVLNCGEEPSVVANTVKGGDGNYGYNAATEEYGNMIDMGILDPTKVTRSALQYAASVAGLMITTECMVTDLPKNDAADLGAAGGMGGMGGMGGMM
HSP60/HSP10, sequence (P10809 whole entry): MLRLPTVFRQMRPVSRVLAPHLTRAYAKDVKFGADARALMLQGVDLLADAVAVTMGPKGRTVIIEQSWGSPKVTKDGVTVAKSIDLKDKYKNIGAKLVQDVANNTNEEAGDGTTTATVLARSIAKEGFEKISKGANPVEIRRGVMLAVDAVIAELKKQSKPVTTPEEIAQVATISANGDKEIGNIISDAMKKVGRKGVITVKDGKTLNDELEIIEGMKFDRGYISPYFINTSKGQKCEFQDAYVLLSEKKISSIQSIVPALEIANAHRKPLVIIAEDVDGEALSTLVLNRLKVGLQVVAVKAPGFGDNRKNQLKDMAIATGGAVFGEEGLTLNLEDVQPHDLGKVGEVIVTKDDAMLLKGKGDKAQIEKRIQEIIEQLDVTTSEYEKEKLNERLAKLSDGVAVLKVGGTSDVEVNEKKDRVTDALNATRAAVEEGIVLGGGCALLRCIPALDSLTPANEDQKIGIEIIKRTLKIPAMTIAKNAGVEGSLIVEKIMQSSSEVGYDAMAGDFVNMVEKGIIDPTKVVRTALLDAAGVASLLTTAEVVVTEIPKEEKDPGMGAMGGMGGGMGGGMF
HSP60/HSP10, sequence (P61604 whole entry, further chain): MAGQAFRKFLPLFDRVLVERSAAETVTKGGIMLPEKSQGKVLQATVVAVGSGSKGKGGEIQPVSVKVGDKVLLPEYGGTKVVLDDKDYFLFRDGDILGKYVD

| SMILES | EC50 (HCT-116) | EC50 (DLD-1) | EC50 (HT-29) | CC50 (FHC) | CC50 [1] | CC50 at 48 h [2] | CC50 at 48 h [3] | IC50 (E. coli GroEL/ES [4]) | IC50 (HSP60/HSP10) | IC50 [5] | IC50 [6] | IC50 (E. coli GroEL/ES [7]) | CC50 [2] | CC50 (HEK293) |
| --- | --- | --- | --- | --- | --- | --- | --- | --- | --- | --- | --- | --- | --- | --- |
| O=S(=O)(Nc1ccc(-c2nc3cc(NS(=O)(=O)c4ccc(F)cc4)ccc3o2)cc1)c1ccc(F)cc1 | 12 µM | 18 µM | 17 µM | 27 µM | 63 µM | 22 µM | 31 µM | 19 µM | 63 µM | > 62.5 µM | > 100 µM | – | – | – |
| Cc1ccc(S(=O)(=O)Nc2ccc(-c3nc4ccc(NS(=O)(=O)c5ccc(C)cc5)cc4[nH]3)cc2)cc1 | 14 µM | 25 µM | 21 µM | > 100 µM | 96 µM | 22 µM | 38 µM | 46 µM | 79 µM | > 62.5 µM | > 100 µM | 24 µM | – | – |
| O=S(=O)(Nc1ccc(-c2nc3cc(NS(=O)(=O)c4ccccc4)ccc3o2)cc1)c1ccccc1 | 13 µM | 16 µM | 16 µM | 30 µM | > 100 µM | 23 µM | 25 µM | 18 µM | 86 µM | > 62.5 µM | > 100 µM | – | – | – |
| COc1ccc(S(=O)(=O)Nc2ccc3oc(-c4ccc(NC(=O)C5CCN(C(C)=O)CC5)cc4)nc3c2)cc1 | 15 µM | 15 µM | 16 µM | > 100 µM | 84 µM | – | – | 61 µM | 24 µM | > 62.5 µM | > 100 µM | 38 µM | 31 µM | 34 µM |
| O=S(=O)(Nc1ccc(-c2nc3cc(NS(=O)(=O)c4cccc(C(F)(F)F)c4)ccc3o2)cc1)c1cccc(C(F)(F)F)c1 | 14 µM | – | – | 56 µM | > 100 µM | 24 µM | 23 µM | – | 54 µM | > 62.5 µM | – | 14 µM | – | – |
| O=C(Nc1ccc(Sc2nc3ccccc3s2)cc1)c1cccc(Br)c1O | 8.9 µM | 12 µM | 9.3 µM | 59 µM | 75 µM | 12 µM | 33 µM | 37 µM | > 100 µM | > 62.5 µM | – | 42 µM | – | – |
| O=S(=O)(Nc1ccc(-c2nc3cc(NS(=O)(=O)c4ccc(Cl)s4)ccc3o2)cc1)c1ccc(Cl)s1 | 15 µM | 33 µM | 33 µM | 43 µM | 65 µM | 48 µM | 41 µM | – | 6.5 µM | 57 µM | – | 2.8 µM | – | – |
| O=S(=O)(Nc1ccc(-c2nc3cc(NS(=O)(=O)c4cccc5ccccc45)ccc3o2)cc1)c1cccc2ccccc12 | 20 µM | 34 µM | 31 µM | – | 52 µM | 49 µM | > 100 µM | 35 µM | – | > 62.5 µM | > 100 µM | 43 µM | – | – |
| COc1ccccc1S(=O)(=O)Nc1ccc(-c2nc3cc(NS(=O)(=O)c4ccccc4OC)ccc3o2)cc1 | 9.2 µM | 6.6 µM | 16 µM | 74 µM | 81 µM | 48 µM | 28 µM | 33 µM | 87 µM | > 62.5 µM | > 100 µM | 43 µM | – | – |
| O=C(Nc1ccc(Sc2nc3ccccc3s2)cc1)c1cc(Br)cc(Br)c1O | 19 µM | 20 µM | 21 µM | 74 µM | 75 µM | 19 µM | 69 µM | 2.2 µM | 5.9 µM | 6.6 µM | – | 3.2 µM | – | – |
| O=S(=O)(Nc1ccc(-c2nc3cc(NS(=O)(=O)c4ccc(C(F)(F)F)cc4)ccc3o2)cc1)c1ccc(C(F)(F)F)cc1 | 15 µM | 10 µM | 13 µM | 57 µM | 69 µM | 21 µM | 29 µM | 34 µM | 57 µM | > 62.5 µM | > 100 µM | 19 µM | – | – |
| COc1c(Br)cccc1C(=O)Nc1ccc(Sc2nc3ccccc3s2)cc1 | 31 µM | 40 µM | 30 µM | – | – | > 100 µM | > 100 µM | – | – | > 62.5 µM | – | – | – | – |
| COc1ccc(S(=O)(=O)Nc2ccc3oc(-c4ccc(NS(=O)(=O)c5cc(Br)ccc5OC)cc4)nc3c2)cc1 | 12 µM | 15 µM | 14 µM | > 100 µM | > 100 µM | – | – | 22 µM | 67 µM | > 62.5 µM | > 100 µM | 27 µM | 16 µM | 18 µM |
| O=S(=O)(Nc1ccc(-c2nc3cc(NS(=O)(=O)c4ccc(Cl)s4)ccc3o2)cc1)c1ccc(Cl)c(C(F)(F)F)c1 | 17 µM | – | 21 µM | 63 µM | 56 µM | 21 µM | 34 µM | 8.3 µM | 6.7 µM | > 62.5 µM | – | 2.8 µM | – | – |
| Nc1ccc(S(=O)(=O)Nc2ccc(-c3nc4cc(NS(=O)(=O)c5ccc(N)cc5)ccc4o3)cc2)cc1 | 17 µM | 47 µM | 24 µM | 65 µM | 53 µM | 39 µM | 63 µM | 3.1 µM | 44 µM | > 62.5 µM | > 100 µM | – | – | – |
| O=S(=O)(Nc1ccc(-c2nc3cc(NS(=O)(=O)c4ccc(Br)cc4)ccc3o2)cc1)c1ccc(Br)cc1 | 11 µM | – | 17 µM | – | > 100 µM | 18 µM | 22 µM | 34 µM | – | > 62.5 µM | > 100 µM | 16 µM | – | – |
| COc1ccc(S(=O)(=O)Nc2ccc3oc(-c4ccc(NS(=O)(=O)c5cc(F)ccc5OC)cc4)nc3c2)cc1 | 15 µM | 18 µM | 15 µM | > 100 µM | > 100 µM | – | – | 30 µM | > 100 µM | > 62.5 µM | > 100 µM | 18 µM | 25 µM | 24 µM |
| O=S(=O)(Nc1ccc(-c2nc3cc(NS(=O)(=O)c4ccccc4Cl)ccc3o2)cc1)c1ccccc1Cl | 12 µM | 17 µM | 15 µM | 45 µM | 38 µM | 25 µM | 46 µM | 43 µM | – | > 62.5 µM | > 100 µM | 40 µM | – | – |
| COc1ccc(S(=O)(=O)Nc2ccc(-c3nc4cc(NS(=O)(=O)c5ccc(OC)cc5)ccc4o3)cc2)cc1 | 12 µM | 28 µM | 40 µM | 57 µM | 40 µM | 60 µM | 48 µM | 56 µM | – | > 62.5 µM | > 100 µM | 30 µM | – | – |
